# Experimental data reported in patent EP3628664A1, “IRREVERSIBLE INHIBITORS OF KRAS G12C MUTANT” (Max-Planck-Gesellschaft zur Förderung der Wissenschaften …, priority 2018, dated 2020).
# Columns and labels:
# [1] = molecular target: T1, KRas G12C (Homo sapiens, UniProt P01116, G12C); assay: Tethering assay: covalent adduct formation determined by MALDI; type: binding; conditions: 20 mM HEPES, pH 7.5, 150 mM NaCl, room temperature; for Covalent adduct formation 30 min: after 30 min; for Covalent adduct formation 24h: after 24h; for Covalent adduct formation 48h: after 48h
# Description: Protein was incubated with the compounds in 20 mM HEPES, pH 7.5, 150 mM NaCl at room temperature for the specific times. For MALDI experiments, a saturated solution of sinapic acid (Aldrich) in H2O (0.1% TFA) / ACN (2:1) was used as matrix. 1 µL of the samples was mixed with 5 µL of matrix, and 1 µL of this mixture was placed on an MTP 384 ground steel target plate and dried in air. Mass spectra were obtained over the m/z range 17.000-21.000 using a Bruker UltrafleXtreme TOF/TOF mass spectrometer. […]
# [2] = Hydrolysis stability in HEPES buffer (LC-MS); type: physicochemical; conditions: HEPES buffer (pH 7.5), 37 °C, 24 hours
# Description: Compound 4 was dissolved in HEPES (4-(2-hydroxyethyl)-1-piperazineethanesulfonic acid) buffer (pH 7.5) at 37 °C for 24 hours.
# [3] = LC-MS stability of compound with glutathione in PBS buffer at 37 °C; type: physicochemical
# [4] = molecular target: T1, KRas G12C; assay: Competitive LC-MS experiment with KRas G12C in the presence of glutathione; type: binding
# Description: In competitive experiments it was shown that the inventive compounds bind selectively to the KRas G12C mutant in the presence of glutathione (GSH).
# Cell indices ±s.d. were measured in technical triplicates and biological duplicates. Staurosporin was used as control compound.
Covalent adduct formation 30 min [1],Covalent adduct formation 24h [1],Covalent adduct formation 48h [1],stability against hydrolysis [2],incubation time after which compound remains unreacted ([3]; in the presence of glutathione),formation of the glutathione-4 covalent adduct ([3]; mixture with glutathione),"stability ([3]; mixture with glutathione, up to 24 hours)","remaining at 18 h ([3]; pH 7.5, with glutathione, after 18 hours incubation time, read-out: compound remains unreacted) [%]","covalent adduct formation with KRas G12C ([4]; in the presence of glutathione, after 1 hour)",SMILES,"glutathione-4 adduct formation ([4]; KRas G12C, compound 4 and glutathione, up to 5 hours)"
+++ (covalent labeling > 90%),+++ (covalent labeling > 90%),+++ (covalent labeling > 90%),,,,,,,"CC(C)(C)c1ccc(O)c(NCC(=O)N2CCN(C(=O)c3cnc(Cl)nc3)CC2)c1 [Compound 1, 2-((5-(tert-butyl)-2-hydroxyphenyl)amino)-1-(4-(2-chloropyrimidine-5-carbonyl)piperazin-1-yl)ethan-1-one]",
+++ (covalent labeling > 90%),+++ (covalent labeling > 90%),+++ (covalent labeling > 90%),,,,,,,"CCC(C)(C)c1ccc(O)c(NCC(=O)N2CCN(C(=O)c3cnc(Cl)nc3)CC2)c1 [Compound 2, 1-(4-(2-chloropyrimidine-5-carbonyl)piperazin-1-yl)-2-((2-hydroxy-5-(tert-pentyl)phenyl)amino)ethan-1-one]",
+++ (covalent labeling > 90%),+++ (covalent labeling > 90%),+++ (covalent labeling > 90%),,,,,,,"CC(C)(C)c1cc(NCC(=O)N2CCN(C(=O)c3cnc(Cl)nc3)CC2)c(O)cc1Cl [Compound 3, 2-((5-(tert-butyl)-4-chloro-2-hydroxyphenyl)amino)-1-(4-(2-chloropyrimidine-5-carbonyl)piperazin-1-yl)ethan-1-one]",
+++ (covalent labeling > 90%),+++ (covalent labeling > 90%),+++ (covalent labeling > 90%),stable against hydrolysis,more than 18 hours,occurs slowly,good stability,~50,Nearly complete,"CCC(C)(C)c1cc(NCC(=O)N2CCN(C(=O)c3cnc(Cl)nc3)CC2)c(O)cc1Cl [Compound 4, 2-((4-chloro-2-hydroxy-5-(tert-pentyl)phenyl)amino)-1-(4-(2-chloropyrimidine-5-carbonyl)piperazin-1-yl)ethan-1-one]",No glutathione-4 adduct formation could be observed
+++ (covalent labeling > 90%),+++ (covalent labeling > 90%),+++ (covalent labeling > 90%),,,,,,,"CC1(c2cc(NCC(=O)N3CCN(C(=O)c4cnc(Cl)nc4)CC3)c(O)cc2Cl)CC1 [Compound 5, 2-((4-chloro-2-hydroxy-5-(1-methylcyclopropyl)phenyl)amino)-1-(4-(2-chloropyrimidine-5-carbonyl)piperazin-1-yl)ethan-1-one]",
+ (5 < covalent labeling ≤ 50),++ (50 < covalent labeling ≤ 90),+++ (covalent labeling > 90%),,,,,,,"CCC(C)(C)c1cc(NCC(=O)N2CCN(C(=O)c3ccnc(Cl)n3)CC2)c(O)cc1Cl [Compound 6, 2-((4-chloro-2-hydroxy-5-(tert-pentyl)phenyl)amino)-1-(4-(2-chloropyrimidine-4-carbonyl)piperazin-1-yl)ethan-1-one]",
+++ (covalent labeling > 90%),+++ (covalent labeling > 90%),+++ (covalent labeling > 90%),,,,,,,"CCC(C)(C)c1cc(NCC(=O)N2CCN(S(=O)(=O)c3cnc(Cl)nc3)CC2)c(O)cc1Cl [Compound 7, 2-((4-chloro-2-hydroxy-5-(tert-pentyl)phenyl)amino)-1-(4-((2-chloropyrimidin-5-yl)sulfonyl)piperazin-1-yl)ethan-1-one]",
+ (5 < covalent labeling ≤ 50),++ (50 < covalent labeling ≤ 90),+++ (covalent labeling > 90%),,,,,,,"CC(C)(C)c1cc(NCC(=O)N2CCN(C(=O)c3cnc(Cl)cn3)CC2)c(O)cc1Cl [Compound 8, 2-((5-(tert-butyl)-4-chloro-2-hydroxyphenyl)amino)-1-(4-(5-chloropyrazine-2-carbonyl)piperazin-1-yl)ethan-1-one]",
+++ (covalent labeling > 90%),+++ (covalent labeling > 90%),+++ (covalent labeling > 90%),,,,,,,"Cc1cc(C)c(NCC(=O)N2CCN(C(=O)c3cnc(Cl)nc3)CC2)c(C)c1 [Compound 9, 1-(4-(2-chloropyrimidine-5-carbonyl)piperazin-1-yl)-2-(mesitylamino)ethan-1-one]",
